According to PubChem BioAssay (NCI):
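48-hour exposure; five concentrations; linearly interpolated endpoints. Definition used: TGI = concentration required for complete inhibition of growth.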

How the values were obtained:
Assay in all cases: inhibition of tumour cell growth, NCI panel, 48 h
RXF-631 renal = tested on: RXF-631 renal
SNB-19 CNS = tested on: SNB-19 CNS
NCI-H23 lung = tested on: NCI-H23 lung
M19-MEL melanoma = tested on: M19-MEL melanoma
SNB-78 CNS = tested on: SNB-78 CNS
A498 renal = tested on: A498 renal
SK-MEL-2 melanoma = tested on: SK-MEL-2 melanoma
MALME-3M melanoma = tested on: MALME-3M melanoma
HCC-2998 colon = tested on: HCC-2998 colon
UACC-257 melanoma = tested on: UACC-257 melanoma
HOP-92 NSCLC = tested on: HOP-92 NSCLC
UACC-62 melanoma = tested on: UACC-62 melanoma
UO-31 renal = tested on: UO-31 renal
KM20L2 colon = tested on: KM20L2 colon
DMS 114 small cell lung = tested on: DMS 114 small cell lung
NCI-H460 lung = tested on: NCI-H460 lung
SK-MEL-28 melanoma = tested on: SK-MEL-28 melanoma
HCT-15 colon = tested on: HCT-15 colon
DMS 273 small cell lung = tested on: DMS 273 small cell lung
SF-295 CNS = tested on: SF-295 CNS
SN12C renal = tested on: SN12C renal
OVCAR-3 ovarian = tested on: OVCAR-3 ovarian
M14 melanoma = tested on: M14 melanoma
LOX IMVI melanoma = tested on: LOX IMVI melanoma
HT29 colon = tested on: HT29 colon
ACHN renal = tested on: ACHN renal
SW-620 colon = tested on: SW-620 colon
U251 CNS = tested on: U251 CNS
SK-OV-3 ovarian = tested on: SK-OV-3 ovarian
SNB-75 CNS = tested on: SNB-75 CNS
NCI-H522 lung = tested on: NCI-H522 lung
CCRF-CEM leukemia = tested on: CCRF-CEM leukemia
HL-60(TB) leukemia = tested on: HL-60(TB) leukemia
SR leukemia = tested on: SR leukemia
DLD-1 colon = tested on: DLD-1 colon
MOLT-4 leukemia = tested on: MOLT-4 leukemia
786-0 renal = tested on: 786-0 renal
OVCAR-8 ovarian = tested on: OVCAR-8 ovarian
COLO 205 colon = tested on: COLO 205 colon
IGROV1 ovarian = tested on: IGROV1 ovarian
SK-MEL-5 melanoma = tested on: SK-MEL-5 melanoma
EKVX NSCLC = tested on: EKVX NSCLC
K-562 leukemia = tested on: K-562 leukemia
KM12 colon = tested on: KM12 colon
HOP-62 NSCLC = tested on: HOP-62 NSCLC
SF-539 CNS = tested on: SF-539 CNS
OVCAR-5 ovarian = tested on: OVCAR-5 ovarian
RPMI-8226 leukemia = tested on: RPMI-8226 leukemia
TK-10 renal = tested on: TK-10 renal
SF-268 CNS = tested on: SF-268 CNS
HCT-116 colon = tested on: HCT-116 colon
A549 NSCLC = tested on: A549 NSCLC
CAKI-1 renal = tested on: CAKI-1 renal
HOP-18 NSCLC = tested on: HOP-18 NSCLC
NCI-H226 lung = tested on: NCI-H226 lung
OVCAR-4 ovarian = tested on: OVCAR-4 ovarian
RXF 393 renal = tested on: RXF 393 renal
HS 578T breast = tested on: HS 578T breast
T-47D breast = tested on: T-47D breast
MDA-MB-231 breast = tested on: MDA-MB-231 breast
MDA-MB-435 = tested on: MDA-MB-435
DU-145 prostate = tested on: DU-145 prostate
NCI/ADR-RES ovarian = tested on: NCI/ADR-RES ovarian
MDA-N = tested on: MDA-N
MCF7 breast = tested on: MCF7 breast
BT-549 breast = tested on: BT-549 breast
PC-3 prostate = tested on: PC-3 prostate
LXFL 529 NSCLC = tested on: LXFL 529 NSCLC

CCN(CC)CCNC(=O)c1ccccc1NC(=O)C(=O)Nc1ccccc1C(=O)NCCN(CC)CC
TGI (RXF-631 renal): > 100 µM | TGI (SNB-19 CNS): > 100 µM | TGI (NCI-H23 lung): > 100 µM | TGI (M19-MEL melanoma): 57.5 µM | TGI (SNB-78 CNS): > 100 µM | TGI (A498 renal): > 100 µM | TGI (SK-MEL-2 melanoma): > 100 µM | TGI (MALME-3M melanoma): 37.7 µM | TGI (HCC-2998 colon): > 100 µM | TGI (UACC-257 melanoma): 35.5 µM | TGI (HOP-92 NSCLC): 98.5 µM | TGI (UACC-62 melanoma): > 100 µM | TGI (UO-31 renal): > 100 µM | TGI (KM20L2 colon): > 100 µM | TGI (DMS 114 small cell lung): 79.7 µM | TGI (NCI-H460 lung): > 100 µM | TGI (SK-MEL-28 melanoma): > 100 µM | TGI (HCT-15 colon): > 100 µM | TGI (DMS 273 small cell lung): > 100 µM | TGI (SF-295 CNS): > 100 µM | TGI (SN12C renal): > 100 µM | TGI (OVCAR-3 ovarian): > 100 µM | TGI (M14 melanoma): 33.9 µM | TGI (LOX IMVI melanoma): 73.6 µM | TGI (HT29 colon): > 100 µM | TGI (ACHN renal): > 100 µM | TGI (SW-620 colon): 42 µM | TGI (U251 CNS): > 100 µM | TGI (SK-OV-3 ovarian): > 100 µM | TGI (SNB-75 CNS): > 100 µM | TGI (NCI-H522 lung): > 100 µM | TGI (CCRF-CEM leukemia): 71.9 µM | TGI (HL-60(TB) leukemia): 32.4 µM | TGI (SR leukemia): 47.6 µM | TGI (DLD-1 colon): > 100 µM | TGI (MOLT-4 leukemia): 74.4 µM | TGI (786-0 renal): 42.6 µM | TGI (OVCAR-8 ovarian): > 100 µM | TGI (COLO 205 colon): 35.8 µM | TGI (IGROV1 ovarian): > 100 µM | TGI (SK-MEL-5 melanoma): 35.6 µM | TGI (EKVX NSCLC): > 100 µM | TGI (K-562 leukemia): 42.1 µM | TGI (KM12 colon): > 100 µM | TGI (HOP-62 NSCLC): > 100 µM | TGI (SF-539 CNS): 62.2 µM | TGI (OVCAR-5 ovarian): > 100 µM | TGI (RPMI-8226 leukemia): > 100 µM | TGI (TK-10 renal): > 100 µM | TGI (SF-268 CNS): > 100 µM | TGI (HCT-116 colon): 43.3 µM | TGI (A549 NSCLC): > 100 µM | TGI (CAKI-1 renal): > 100 µM | TGI (HOP-18 NSCLC): > 100 µM | TGI (NCI-H226 lung): > 100 µM | TGI (OVCAR-4 ovarian): > 100 µM

OCCOc1ccc(-c2cc(-c3ccccn3)nc(-c3ccccn3)c2)cc1
TGI (RXF-631 renal): > 100 µM | TGI (SNB-19 CNS): > 100 µM | TGI (NCI-H23 lung): > 100 µM | TGI (M19-MEL melanoma): 0.593 µM | TGI (SNB-78 CNS): > 100 µM | TGI (A498 renal): 17 µM | TGI (RXF 393 renal): 0.85 µM | TGI (SK-MEL-2 melanoma): 3.48 µM | TGI (HS 578T breast): > 100 µM | TGI (MALME-3M melanoma): 17.5 µM | TGI (HCC-2998 colon): > 18.4 µM | TGI (T-47D breast): > 100 µM | TGI (UACC-257 melanoma): 12.9 µM | TGI (HOP-92 NSCLC): > 100 µM | TGI (UACC-62 melanoma): 2.66 µM | TGI (UO-31 renal): 1 µM | TGI (KM20L2 colon): > 41.8 µM | TGI (DMS 114 small cell lung): 1.93 µM | TGI (MDA-MB-231 breast): > 40.2 µM | TGI (NCI-H460 lung): 3.69 µM | TGI (SK-MEL-28 melanoma): > 100 µM | TGI (HCT-15 colon): > 40.6 µM | TGI (MDA-MB-435): > 100 µM | TGI (SF-295 CNS): > 100 µM | TGI (DU-145 prostate): > 30.5 µM | TGI (SN12C renal): > 100 µM | TGI (OVCAR-3 ovarian): 6.67 µM | TGI (M14 melanoma): 3.91 µM | TGI (LOX IMVI melanoma): 6.43 µM | TGI (HT29 colon): > 100 µM | TGI (ACHN renal): 3.78 µM | TGI (SW-620 colon): > 100 µM | TGI (U251 CNS): > 100 µM | TGI (SK-OV-3 ovarian): 2.17 µM | TGI (SNB-75 CNS): 26.1 µM | TGI (NCI-H522 lung): 14.1 µM | TGI (CCRF-CEM leukemia): 40.4 µM | TGI (NCI/ADR-RES ovarian): 2.4 µM | TGI (HL-60(TB) leukemia): 0.494 µM | TGI (SR leukemia): 11.7 µM | TGI (DLD-1 colon): > 100 µM | TGI (MDA-N): > 100 µM | TGI (MCF7 breast): > 100 µM | TGI (MOLT-4 leukemia): 22.6 µM | TGI (BT-549 breast): > 100 µM | TGI (786-0 renal): 13.9 µM | TGI (OVCAR-8 ovarian): 2.6 µM | TGI (COLO 205 colon): 6.29 µM | TGI (IGROV1 ovarian): > 100 µM | TGI (PC-3 prostate): > 100 µM | TGI (LXFL 529 NSCLC): > 100 µM | TGI (SK-MEL-5 melanoma): 8.54 µM | TGI (EKVX NSCLC): > 100 µM | TGI (K-562 leukemia): 11.4 µM | TGI (KM12 colon): > 100 µM | TGI (HOP-62 NSCLC): > 18.9 µM | TGI (SF-539 CNS): 2.26 µM | TGI (OVCAR-5 ovarian): 12.1 µM | TGI (RPMI-8226 leukemia): > 96.7 µM | TGI (TK-10 renal): > 100 µM | TGI (SF-268 CNS): > 100 µM | TGI (HCT-116 colon): > 43.7 µM | TGI (A549 NSCLC): > 39.5 µM | TGI (CAKI-1 renal): 17.7 µM | TGI (HOP-18 NSCLC): 5.59 µM | TGI (NCI-H226 lung): 4.55 µM | TGI (OVCAR-4 ovarian): > 100 µM

O=C(CC1=Nc2nnc(-c3nnc4n3C(=O)C(CC(=O)c3cccnc3)=N4)n2C1=O)c1cccnc1
TGI (RXF-631 renal): > 100 µM | TGI (SNB-19 CNS): > 100 µM | TGI (NCI-H23 lung): > 100 µM | TGI (M19-MEL melanoma): > 100 µM | TGI (SNB-78 CNS): > 100 µM | TGI (A498 renal): > 100 µM | TGI (RXF 393 renal): > 100 µM | TGI (SK-MEL-2 melanoma): > 100 µM | TGI (MALME-3M melanoma): > 100 µM | TGI (HCC-2998 colon): > 100 µM | TGI (UACC-257 melanoma): > 100 µM | TGI (HOP-92 NSCLC): > 100 µM | TGI (UACC-62 melanoma): > 100 µM | TGI (UO-31 renal): > 100 µM | TGI (KM20L2 colon): > 100 µM | TGI (DMS 114 small cell lung): > 100 µM | TGI (NCI-H460 lung): > 100 µM | TGI (SK-MEL-28 melanoma): > 100 µM | TGI (HCT-15 colon): > 100 µM | TGI (DMS 273 small cell lung): > 100 µM | TGI (SF-295 CNS): > 100 µM | TGI (SN12C renal): > 100 µM | TGI (OVCAR-3 ovarian): > 100 µM | TGI (M14 melanoma): > 100 µM | TGI (LOX IMVI melanoma): > 100 µM | TGI (HT29 colon): > 100 µM | TGI (ACHN renal): > 100 µM | TGI (SW-620 colon): > 100 µM | TGI (U251 CNS): > 100 µM | TGI (SK-OV-3 ovarian): > 100 µM | TGI (SNB-75 CNS): > 100 µM | TGI (NCI-H522 lung): > 100 µM | TGI (CCRF-CEM leukemia): > 100 µM | TGI (HL-60(TB) leukemia): > 100 µM | TGI (DLD-1 colon): > 100 µM | TGI (MOLT-4 leukemia): > 100 µM | TGI (786-0 renal): > 100 µM | TGI (COLO 205 colon): > 100 µM | TGI (IGROV1 ovarian): > 100 µM | TGI (LXFL 529 NSCLC): > 100 µM | TGI (SK-MEL-5 melanoma): > 100 µM | TGI (K-562 leukemia): > 100 µM | TGI (KM12 colon): > 100 µM | TGI (HOP-62 NSCLC): > 100 µM | TGI (SF-539 CNS): > 100 µM | TGI (OVCAR-5 ovarian): > 100 µM | TGI (RPMI-8226 leukemia): > 100 µM | TGI (TK-10 renal): > 100 µM | TGI (SF-268 CNS): > 100 µM | TGI (HCT-116 colon): > 100 µM | TGI (A549 NSCLC): > 100 µM | TGI (CAKI-1 renal): > 100 µM | TGI (NCI-H226 lung): > 100 µM | TGI (OVCAR-4 ovarian): > 100 µM
